Laboratory results taken from the METLIN SMRT retention time set (Domingo-Almenara et al. 2019).

Test: gradient 5% acetonitrile 3 min, to 50% in 2 min, to 85% in 15 min, held 3 min, 100 µL/min
Settings: column: Zorbax Extend-C18 2.1 x 50 mm; eluents: water / acetonitrile, 0.1% formic acid
In short: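 Standards, all pure, were combined into mixtures of ~100 molecules and run at 100 μL/min on a Zorbax Extend-C18 column (2.1 × 50 mm, 1.8 μm) with water and acetonitrile, each containing 0.1% formic acid. A coupled quadrupole time-of-flight mass spectrometer operated in positive and negative ionization mode. Retention time values come from computationally picked adduct peaks, each inspected manually.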

Compound | RP-LC retention time [s]
CC(=O)N1CCc2cc(C)c(S(=O)(=O)NC3CC3)cc21 | 709
O=C([C@@H]1C[C@H](Oc2ccccc2)CN1C(=O)c1n[nH]c2ccccc12)N1CCCC1 | 802
O=C(c1ccc(F)cc1)N1CCN(c2nc(CN3CCOCC3)cs2)CC1 | 597
c1ccc(CCc2nc3nccc(-c4ccncc4)n3n2)cc1 | 713
Cc1ccc(CN2CCCn3nc(C(=O)NCCCN4CCOCC4)cc3C2=O)cc1 | 618
CCOC(=O)c1cnc(N2CCN(c3ccc(OC)cc3)CC2)c2ccccc12 | 1080
Cn1c(=O)c2ccn(CC(=O)N3CCC(C(N)=O)(N4CCCCC4)CC3)c2n(C)c1=O | 728
CCOC(=O)c1cncn1C(C)c1ccccc1 (stereo not given) | 774
O=C(c1ccco1)N1CCN(C(=O)C2CN(S(=O)(=O)C3CC3)CC23CCCCC3)CC1 (stereo not given) | 758
COCCn1nc2n(c1=O)CCN(C(=O)c1ccc(Br)o1)CC2 | 636
CCN1CCCn2cc(S(=O)(=O)N(C)c3ccc(C)cc3)cc2C1=O | 756
Cc1c(-c2noc(-c3cccc(F)c3)n2)nnn1-c1ccc(F)cc1 | 1100
CCCN1C(=O)COc2cc(-c3noc(C(=O)NCCc4ccc(S(N)(=O)=O)cc4)n3)ccc21 | 771
CN1CCN(c2ccc(NC(=O)c3ccc(Br)cc3)c(C(=O)O)c2)CC1 | 653
COc1ccc(C)cc1NC(=O)N1C[C@@H]2C[C@H](NC(=O)c3cccs3)[C@H]1C2 | 827
CC(=O)Nc1onc(C)c1-c1ccc(C)c(S(=O)(=O)N2CCN(C3CCCCC3)CC2)c1 | 629
CN(C)C(=O)c1ccc2c(c1)N(CC(=O)NCCCc1ccccc1)C(=O)CS2 | 726
OCCCCc1nccc2c1[nH]c1ccccc12 | 628
Cn1nnc2ccc(-c3noc(-c4cc(F)ccc4Cl)n3)cc21 | 1060
COc1ccccc1-c1nnc(-c2cc(S(=O)(=O)N3CCCCCC3)ccc2Cl)o1 | 1130
Cc1ccc(-n2ccc(=O)c(-c3nc(-c4ccc(F)c(Cl)c4)no3)n2)cc1 | 1030
Cn1cncc1C(=O)N1CC(F)(F)C[C@H]1c1nc(C2CC2)no1 | 620
Cc1cc(C(=O)NCc2ccc(F)cc2)n(-c2ccccc2)n1 | 813

Compound | RP-LC retention time [s]
COC1CCC12CCN(S(=O)(=O)c1ccc(C)c(Cl)c1)CC2 (stereo not given) | 1160
COC(=O)c1c(NCc2ccc3c(c2)OCO3)c2ccc(F)cc2[nH]c1=O | 734
CNC(=O)N1CC(C)Oc2ccc(Cl)cc21 (stereo not given) | 806
Cc1nn2c(CNS(=O)(=O)c3ccc(F)c(Cl)c3)c(-c3ccccc3)nc2s1 | 942
COc1ccc(-c2nnc(COc3ccc(NC(=O)CSc4ccncc4)cc3)o2)cc1 | 650
CC1(C(=O)NCc2ccc(F)cc2)CCN(S(=O)(=O)c2ccc(Br)s2)CC1 | 1010
CCn1c(=O)c(C(=O)NCc2cc(F)ccc2F)nc2cccnc21 | 802
O=C(Nc1ccc(OC(F)(F)F)cc1)C1CCCN(c2cc(-n3cccn3)ncn2)C1 (stereo not given) | 992
O=C(c1ccco1)N1CCN(C(=O)C2CCCN(c3ncnc4c3nc3n4CCCCC3)C2)CC1 (stereo not given) | 657
CN(C)c1cc(OC2CCN(C(=O)c3c[nH]c4ccccc34)C2)ncn1 (stereo not given) | 604
CCn1nccc1-c1cccc(-c2noc(-c3cccs3)n2)c1 | 1130
COc1cc2c(cc1CNC(=O)C1CC1)OCCCO2 | 709
O=C(Nc1ccc2c(c1)OCCO2)N1CCCCCC1CN1CCOCC1 (stereo not given) | 611
N#Cc1ccc(-c2nc(-c3cccc(-c4ccn[nH]4)c3)no2)cc1 | 917
Cc1ccc(CNC(=O)C2CCN(S(C)(=O)=O)c3cc(C)ccc3O2)cc1 (stereo not given) | 912
Cc1ccc(NC(=O)C2CCN(S(C)(=O)=O)c3ccccc3O2)cc1 (stereo not given) | 892
CC(C)CCNC(=O)C1CCCCC(=O)N1 (stereo not given) | 670
O=S(=O)(c1ccccc1)N1CCOc2ccccc21 | 974
Cc1ccc(-c2nnc(-c3nn(C)c4c3CN(S(=O)(=O)Cc3ccccc3Cl)CC4)o2)cc1 | 1020
CCc1nc2cc3c(cc2n1CC(=O)Nc1ccc2c(c1)OCCCO2)OCCO3 | 648
Cc1cccc(CNC(=O)CN2C(=O)C3CCCCN3c3ccc(S(=O)(=O)N4CCCC4)cc32)c1 (stereo not given) | 1080
COCCC1CCN(C(=O)CN(C)C(=O)c2cccn2C)CC1 | 670
